Test results as given in patent US10196668B2, “Reagents and methods for screening MPS I, II, IIIA, IIIB, IVA, VI, and VII” (University of Washington through its Center for …, priority 2013, dated 2019).
Where “and” joins values, the source holds several entries; their conditions need not be identical. Equal values may be shown once.

Assays:
Type in all cases: biochemical
[1] = biological target: T1, Recombinant human hexosaminidase A (Homo sapiens, UniProt P06865); test: Action of hexosaminidase A on ASB substrate, UHPLC-MS/MS; details: 1 mM ASB substrate, 100 mM ammonium formate pH 5.6, 5 hrs at 37° C.
T1 sequence (P06865 89-529): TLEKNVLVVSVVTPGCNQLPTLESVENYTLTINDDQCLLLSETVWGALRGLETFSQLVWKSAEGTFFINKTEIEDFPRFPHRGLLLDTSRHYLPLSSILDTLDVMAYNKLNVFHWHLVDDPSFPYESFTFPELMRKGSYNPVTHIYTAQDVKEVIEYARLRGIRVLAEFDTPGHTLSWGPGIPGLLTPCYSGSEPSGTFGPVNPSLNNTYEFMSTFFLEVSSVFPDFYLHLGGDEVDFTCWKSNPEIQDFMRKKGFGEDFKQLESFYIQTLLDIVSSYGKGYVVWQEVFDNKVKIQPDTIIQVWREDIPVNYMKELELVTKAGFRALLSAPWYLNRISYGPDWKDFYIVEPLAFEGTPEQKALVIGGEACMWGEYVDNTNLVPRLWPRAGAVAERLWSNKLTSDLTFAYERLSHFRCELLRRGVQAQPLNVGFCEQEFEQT
T1 sequence (P07686 122-556 partner): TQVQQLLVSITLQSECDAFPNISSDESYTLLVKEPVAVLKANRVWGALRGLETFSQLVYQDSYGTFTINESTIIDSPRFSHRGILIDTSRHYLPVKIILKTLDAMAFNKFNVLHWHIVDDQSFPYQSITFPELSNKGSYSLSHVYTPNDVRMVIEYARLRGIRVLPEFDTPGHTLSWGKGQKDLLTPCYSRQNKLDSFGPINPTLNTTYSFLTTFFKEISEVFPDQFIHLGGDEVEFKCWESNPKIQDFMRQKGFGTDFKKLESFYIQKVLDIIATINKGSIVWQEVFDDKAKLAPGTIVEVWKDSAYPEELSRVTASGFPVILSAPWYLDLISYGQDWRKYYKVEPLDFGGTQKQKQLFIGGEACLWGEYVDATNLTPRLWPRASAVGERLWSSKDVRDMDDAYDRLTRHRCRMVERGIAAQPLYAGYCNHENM
Procedure: The mixture includes 1 mM ASB substrate in 100 mM ammonium formate buffer, pH 5.6 containing the indicated amount of hexosaminidase. After incubation for 5 hrs at 37° C., the mixture is analyzed by UHPLC-MS/MS. The aglycone signal is not due to contamination of the substrate with aglycone because no aglycone is seen when hexosaminidase A is omitted. The aglycone is not the result of cleavage of the ASB in the electrospray ionization source of the mass spectrometer because the amount of aglycone increases with increasing hexosaminidase A (FIG. 1), and the UHPLC retention time of the aglycone matches that of an authentic aglycone, and this is different than the retention time of the ASB substrate. Thus, hexosaminidase A acts on the ASB substrate to produce algycone. Because hexosaminidase A acts on ASB substrate to produce algycone, this enzyme cannot be used in a coupled assay of ASB, and furthermore it is important to inhibit hexosaminidase A so as not to generate aglycone directly from the ASB substrate.

[2] = biological target: T2, arylsulfatase B (ASB) (Homo sapiens, UniProt P15848); test: ASB (MPS-VI) assay with beta-NGA and Z-PUG-NAc, UHPLC-MS/MS
T2 construct: from tissue; host or cells: dried blood spot (3 mm punch)
Procedure: Having established the action of human hexosaminidase A on the ASB substrate, the ASB assay was developed, using the same approach developed for GALNS, namely adding beta-NGA and Z-PUG-NAc. The experiments were carried out as for the GALNS assays (see Example 10) but with 1 mM ASB substrate replacing the GALNS substrate.
(§1) Experiment 1. A 3 mm punch of a dried blood spot from a random newborn is incubated with 0.03 mL of assay cocktail consisting of 1 mM GALNS substrate in 50 mM ammonium formate pH 4.0 containing 7.5 mM barium acetate, 5.0 mM cerium acetate, 1 mM Z-PUG-NAc, and 0.01 mg of bacterial beta-N-acetylgalactosaminidase. The mixture also contains 0.005 mM internal standard. After 16 hrs at 37° C. with shaking, the mixture is quenched with 0.12 mL of acetonitrile and the sample plate is centrifuged to pellet the precipitate. Supernatant (0.12 mL) is transferred to a new plate, and 0.12 mL of water is added. The plate is placed on the autosampler of the UHPLC-MS/MS instrument (Waters Xevo TQ MS/MS with a Waters Acquity UHPLC system). A portion of the sample (0.01 mL) is injected, and the GALNS product (substrate minus sulfate), the internal standard, and the aglycones derived from the GALNS product and internal standard are quantified by multiple reaction monitoring (MS/MS). Note the internal standard added, like the GALNS product, is converted to its aglycone by the addition of bacterial beta-N-acetylgalactosaminidase.

[3] = biological target: T3, human hexosaminidase A (Homo sapiens, UniProt P06865+P07686); test: Block of endogenous hexosaminidase A in dried blood spots in the GALNS assay; details: 1 mM Z-PUG-NAc in assay cocktail with dried blood spot
T3 construct: from tissue; host or cells: dried blood spot from a random newborn
T3 sequence (P06865 89-529): T1 sequence (P06865 89-529)
T3 sequence (P07686 122-556): T1 sequence (P07686 122-556 partner)
Procedure: as §1

[4] = biological target: T4, iduronic acid 2-sulfatase (Homo sapiens, UniProt P22304); test: Sulfatase assay for MPS-II with second enzyme alpha-L-iduronidase; details: with iduronidase versus without
T4 construct: from tissue; host or cells: dried blood spot (3 mm punch)
T4 sequence (P22304 34-550): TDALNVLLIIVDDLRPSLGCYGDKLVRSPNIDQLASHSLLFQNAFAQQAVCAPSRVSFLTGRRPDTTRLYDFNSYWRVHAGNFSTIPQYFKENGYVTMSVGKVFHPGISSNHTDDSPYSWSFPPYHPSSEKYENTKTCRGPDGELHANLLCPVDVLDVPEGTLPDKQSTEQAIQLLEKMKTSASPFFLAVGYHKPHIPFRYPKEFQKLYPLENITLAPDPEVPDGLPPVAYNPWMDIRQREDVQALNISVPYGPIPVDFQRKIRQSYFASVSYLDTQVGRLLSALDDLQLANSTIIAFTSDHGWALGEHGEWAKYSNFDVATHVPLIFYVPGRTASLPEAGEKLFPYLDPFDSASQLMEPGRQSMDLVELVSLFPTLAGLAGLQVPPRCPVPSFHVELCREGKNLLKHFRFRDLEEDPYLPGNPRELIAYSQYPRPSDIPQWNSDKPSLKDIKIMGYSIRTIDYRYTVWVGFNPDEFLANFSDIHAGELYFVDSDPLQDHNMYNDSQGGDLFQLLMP
Procedure: In the assay, a second enzyme, alpha-L-iduronidase (a glycohydrolase) is added to the assay cocktail, which converts Initial MPS-II Product to Final MPS-II Product by removing the iduronic acid residue leaving the aglycone. The iduronidase can be present in the assay cocktail that is incubated with the dried blood spot, or it can be added after the first incubation with the dried blood spot followed by a second incubation period. The amount of iduronidase added is sufficient to convert all Initial MPS-II Product to Final MPS-II Product. The assay cocktail also contains Initial MPS-II Internal Standard (same as Initial MPS-II Product but, for example, with 5 deuteriums in the benzoyl group), which is converted by iduronidase to Final MPS-II Internal Standard. Both Final MPS-II Product and Final MPS-II Internal Standard are detected by tandem mass spectrometry, which enables the amount of Final MPS-II Product to be quantified. […] The analytes are detected by multiple reaction monitoring.
Thus the assay sensitivity has been improved by about 100-fold. […] With the assay of the invention, this desulfation is of no concern because the product being detected is the aglycone (Final MPS-II Product).

[5] = Expt. 1: 3 mm dried blood spot punch, 1 mM Z-PUG-NAc, 0.01 mg beta-NGA
[6] = Expt. 2: 3 mm filter paper punch (no blood), 1 mM Z-PUG-NAc, 0.01 mg of bacterial enzyme
[7] = Expt. 3: 3 mm dried blood spot punch, 1 mM Z-PUG-NAc, no beta-NGA
[8] = Expt. 4: 3 mm filter paper punch (no blood), nothing added

T2 sequence (P15848 37-533): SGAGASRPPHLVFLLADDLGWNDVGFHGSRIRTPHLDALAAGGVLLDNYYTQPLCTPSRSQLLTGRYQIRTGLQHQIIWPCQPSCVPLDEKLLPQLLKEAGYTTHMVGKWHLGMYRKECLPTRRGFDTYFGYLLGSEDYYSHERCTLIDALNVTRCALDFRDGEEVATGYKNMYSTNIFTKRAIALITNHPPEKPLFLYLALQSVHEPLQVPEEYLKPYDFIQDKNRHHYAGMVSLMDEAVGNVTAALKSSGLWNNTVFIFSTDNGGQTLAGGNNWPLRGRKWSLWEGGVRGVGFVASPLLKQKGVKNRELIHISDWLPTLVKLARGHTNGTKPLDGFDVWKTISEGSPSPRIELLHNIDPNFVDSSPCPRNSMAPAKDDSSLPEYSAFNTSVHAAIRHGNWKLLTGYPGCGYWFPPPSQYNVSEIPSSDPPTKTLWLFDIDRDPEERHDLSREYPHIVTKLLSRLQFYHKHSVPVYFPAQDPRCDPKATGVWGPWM

CCCCC(=O)N(CCCCCNC(=O)c1ccccc1)CCC(=O)Nc1ccc(OC2OC(CO)C(OS(=O)(=O)O)C(O)C2NC(C)=O)cc1 (centres unmarked) [ASB substrate]
aglycone release from substrate by hexosaminidase A [1]: acts on the ASB substrate to liberate aglycone
ASB product (substrate without sulfate) peak area [2, 5]: 154,000
aglycone peak area (product without sugar) [2, 5]: 1,570,000
ASB product (substrate without sulfate) peak area [2, 6]: 404
aglycone peak area (product without sugar) [2, 6]: 58,300
ASB product (substrate without sulfate) peak area [2, 7]: 371,000
aglycone peak area (product without sugar) [2, 7]: 39,900
ASB product (substrate without sulfate) peak area [2, 8]: 3,340 and 3,430
aglycone peak area (product without sugar) [2, 8]: 33,800

CC(=O)N[C@H]1/C(=N/OC(=O)Nc2ccccc2)O[C@H](CO)[C@@H](O)[C@@H]1O [Z-PUG-NAc, (Z)—O-(2-acetamido-2-deoxy-D-glucopyranosylidene)-amino N-phenylcarbamate]
inhibition of hexosaminidase A [3]: fully block hexosaminidase A

B1: iduronidase: human alpha-L-iduronidase (a glycohydrolase) obtained by overexpression in mammalian cells, second enzyme (protein, UniProt P35475 28-653, looked up)
Alpha-L-iduronidase: APHLVHVDAARALWPLRRFWRSTGFCPPLPHSQADQYVLSWDQQLNLAYVGAVPHRGIKQVRTHWLLELVTTRGSTGRGLSYNFTHLDGYLDLLRENQLLPGFELMGSASGHFTDFEDKQQVFEWKDLVSSLARRYIGRYGLAHVSKWNFETWNEPDHHDFDNVSMTMQGFLNYYDACSEGLRAASPALRLGGPGDSFHTPPRSPLSWGLLRHCHDGTNFFTGEAGVRLDYISLHRKGARSSISILEQEKVVAQQIRQLFPKFADTPIYNDEADPLVGWSLPQPWRADVTYAAMVVKVIAQHQNLLLANTTSAFPYALLSNDNAFLSYHPHPFAQRTLTARFQVNNTRPPHVQLLRKPVLTAMGLLALLDEEQLWAEVSQAGTVLDSNHTVGVLASAHRPQGPADAWRAAVLIYASDDTRAHPNRSVAVTLRLRGVPPGPGLVYVTRYLDNGLCSPDGEWRRLGRPVFPTAEQFRRMRAAEDPVAAAPRPLPAGGRLTLRPALRLPSLLLVHVCARPEKPPGQVTRLRALPLTQGQLVLVWSDEHVGSKCLWTYEIQFSQDGKAYTPVSRKPSTFNLFVFSPDTGAVSGSYRVRALDYWARPGPFSDPVPYLEVPVPRGPPSPGNP
improvement of assay sensitivity by second enzyme [4]: about 100 fold
